Experiment [1] concerns wild-type GCR1 ("wt") BY-2 cells. The experiment in a line: Thymidine incorporation in synchronized BY-2 cells, wild-type GCR1. Conditions: 3 μM and 10 μM ABA; BY-2 cells with wild-type GCR1; measured over time; FIG. 11A. In kind it is cell-based, tobacco (Nicotiana tabacum). As to the method:
(§1) Agrobacterium tumefaciens were transformed with the pMON-GCR1 plasmid and used to produce transgenic BY-2 cell lines. BY-2 cells were transformed according to the method disclosed in An, G. Plan Physiol. 79, 568-570 (1985). The selected transgenic alli were grown in the dark on selective medium at the 24° C. and transferred to fresh medium every 4 week. Liquid cultures were obtained for the different transgenic lines and synchronization was achieved by a 24-h subculture in 5 mg/liter aphidicolin. See, Combettes, B. et al., Methods Cells Sci., 21, 109-121 (1991).
(§2) DNA synthesis is measured by incubating 1 ml samples of the synchronized cell suspension with 1 μCi of [^3H] thymidine for 20 minutes at 27° C. in Eppendorf microtubes with gentle shaking. Cells were collected by centrifugation for 5 minutes at 1,800× g, and the pellet was frozen in dry ice. DNA was extracted with Plant DNAzol Reagent (GIBCO/BRL), resuspended in water, and the [^3H] radioactivity was determined with a scintillation counter.
(§3) To determine the effect of the non-endogenous, constitutively activated version of GCR1, […], on the cell cycle, control cell (empty vector), wild-type GCR1 (“wt”) and R271P overexpressing BY-2 cells were synchronized with aphidicolin for 24 h, and, after removal of the cell cycle blocker, thymidine incorporation was measured. (See, FIG. 10). […]
On the technique in general: Uptake of a labelled nucleoside into DNA is a usual measure of proliferation.

Experiment [2] concerns non-endogenous, constitutively activated version of GCR1, R271P, BY-2 cells. The experiment in a line: Thymidine incorporation in synchronized BY-2 cells, constitutively activated GCR1 R271P. It is filed as cell-based, tobacco (Nicotiana tabacum). Conditions: 3 μM and 10 μM ABA; BY-2 cells with R271P GCR1; measured over time; FIG. 11B. As to the method:
as §1, §2, §3

Turning to `CC1=CC(=O)CC(C)(C)C1(O)/C=C/C(C)=C\C(=O)O` (centres unmarked) [ABA, Abscissic Acid], the “thymidine incorporation (DNA synthesis)” value is listed as “decreases thymidine incorporation” in experiment [1] and “not affected” in experiment [2].

The record behind these values is patent US20030073812A1, “Non-endogenous, constitutively activated versions of plant G protein-coupled receptor: GCR1” (priority 2001, published 2003).
